Here are results for 2 compounds from PMC9045377, “CpxA Phosphatase Inhibitor Activates CpxRA and Is a Potential Treatment for Uropathogenic Escherichia coli in a Murine Model of Infection” (Microbiology Spectrum, 2022).

“Also recorded” adds a separate entry of the source. Where a name gives a salt, the structure may show the parent alone.

Data set [1] relates to UPEC strain CFT073. The format is in vivo, Escherichia coli (in female CBA/J mice). Conditions: compound 6 trial. Here is the method: Four groups of eight female CBA/J mice were transurethrally inoculated with a target dose of ∼10^8 CFU of either CFT073 or CFT073ΔcpxA::cat. One group was treated with ciprofloxacin (2.5 mg/kg/dose dissolved in sterile distilled water) s.c. 12, 24, 36, 48, and 60 h after inoculation with CFT073 as described ([31]). The untreated CFT073 and CFT073ΔcpxA::cat inoculated groups were given the vehicle control s.c. at 12, 24, 36, 48, and 60 h after inoculation. The compound 6 treated group were given the drug (100 mg/kg) s.c. at 12, 36, and 60 h after inoculation with CFT073 and received the vehicle control s.c. at 24 and 48 h. The animals were sacrificed 4 h after the last treatment (64 h postinoculation) and CFU per milliliter or CFU per gram of tissue was determined in the urine, bladder, and kidneys.
Animal experiments were conducted according to the guidelines of the University of Michigan Institutional Animal Care and Use Committee. For the animal infection experiments, bacterial strains were cultured at 37°C in LB medium overnight with shaking ([30]). Female CBA/J mice (Jackson Laboratories, Bar Harbor, ME) were inoculated transurethrally with a target dose of ∼10^8 CFU of CFT073 or CFT073ΔcpxA::cat. Mice were subsequently treated 12 h later either with the vehicle, ciprofloxacin hydrochloride (PanReac AppliChem ITW Reagents; Jade Scientific), compound 1, compound 6, or compound 26 as described in Results and euthanized 4 h after the last treatment. Bacterial loads of each strain were calculated from the urine, bladder, and kidneys of mice as previously described; the limits of detection for these assays were 100 CFU/mL or 100 CFU/g of urine and tissue, respectively ([33]). Values of 50 CFU/mL or 50 CFU/g were assigned to specimens whose yields were below the limit of detection.
Due to the extreme skewness of the data, natural log transformation was used before the data were analyzed statistically. Descriptive statistics were calculated for all of the log-transformed variables. Statistical comparisons were done using analysis of variance (ANOVA) with follow-up pairwise tests adjusted for multiple comparisons using the Tukey procedure.

In data set [2] the test system is UPEC strain CFT073. The format is in vivo, Escherichia coli (in female CBA/J mice).
A short description of data set [3]: Toxicity / clinical signs in mice. The format is in vivo, female CBA/J mice. The conditions noted are these: 100 mg/kg s.c. twice a day for 3 days. Here is the method:
We tested our initial hit, compound 1 ([31]) (Fig. 1), for toxicity in a murine model using criteria described in Materials and Methods. […] To test compound 1 for efficacy, female CBA/J mice were transurethrally inoculated with ∼1 × 10^8 CFU of UPEC strain CFT073; 12 h later, mice were treated with 100 mg/kg compound 1 (n = 10) or the vehicle control (n = 5) s.c. twice a day for 3 days and then sacrificed 4 h after the last dose. No effect was seen on the recovery of E. coli CFT073 in the urine, bladder, or kidneys (see Fig. S1 in the supplemental material). As compound 1 lacked efficacy, we aimed to improve the scaffold to enhance potency and eliminate the nitro group liability ([32]).
We developed a high-performance liquid chromatography-tandem mass spectrometry (HPLC-MS/MS) assay to measure compound 6 with a lower limit of quantification of 1 ng/mL. Single-dose PK parameters of compound 6 were determined in female CBA/J mice (n = 15) given 100 mg/kg s.c. dissolved in the vehicle. Blood was obtained from groups of 3 mice 1, 2, 4, 8, and 24 h postinjection.
Animal experiments were conducted according to the guidelines of the Indiana University School of Medicine Institutional Animal Care and Use Committee by the IU Simon Comprehensive Cancer Center In Vivo Therapeutics Core, a component of the Indiana Clinical Translational Science Institute. For the pilot toxicity study with compound 1, 4- to 6-week-old CBA/J female mice were obtained from Jackson Laboratory (Bar Harbor, ME) and were treated with compound 1 or the vehicle control twice a day for 3 days as described in the results. […] Toxicity was determined by the following criteria: deteriorating health-hunched posture, lack of grooming, failure to thrive, failure to eat and drink for >48 h, rapid loss of 15 to 20% body weight, inactivity with hunched posture, loss of righting reflex and inability to maintain upright posture, loss of general body condition with spine becoming visible, and dehiscence of wounds and/or evidence of infection at injection sites not responsive to veterinary treatment.

For the next data set, the system named is CpxRA. More on the design: method as in PMID 31104993. Conditions: β-galactosidase reporter assay in E. coli; read-out: mean 50% effective concentration (EC50), CpxRA activation; cited from earlier work.

As to `O=C(O)c1cn(C2CC2)c2cc(N3CCNCC3)c(F)cc2c1=O` [ciprofloxacin, ciprofloxacin hydrochloride, reference compound], the “CFU of CFT073 recovered in urine vs CFT073-inoculated vehicle control” value in the data set with UPEC strain CFT073 [1] (8 mice/group, compound 6 100 mg/kg s.c. at 12, 36, 60 h, ciprofloxacin 2.5 mg/kg/dose s.c. at 12, 24, 36, 48, 60 h, sacrifice 64 h) was “significantly reduced”. Moreover, in the data set on UPEC strain CFT073 [1] (same regimens), the “CFU of CFT073 recovered in kidneys vs CFT073-inoculated vehicle control” value was “significantly reduced”. For the same compound, the “recoverable CFU in urine vs CFT073-inoculated vehicle-treated controls” value in the data set on UPEC strain CFT073 [2] (compound 26 trial, 8 mice/group, compound 26 100 mg/kg s.c. at 12, 36, 60 h, ciprofloxacin 2.5 mg/kg/dose s.c. at 12, 24, 36, 48, 60 h, sacrifice 64 h) is on record as “significantly lower”. Moreover, in the data set with UPEC strain CFT073 [2] (compound 26 trial, same regimens), the “recoverable CFU in kidneys vs CFT073-inoculated vehicle-treated controls” value is on record as “significantly lower”.
On to `NC1CCCc2c1[nH]c1ccc([N+](=O)[O-])cc21` (centres unmarked) [compound 1, 6-nitro-2,3,4,9-tetrahydro-1H-carbazol-1-amine], for which, in data set [3], the “duration of decreased activity after each dose” value was 20 min. Also, the toxicity entry in data set [3] (n = 3, observed 14 days) was “exhibited no toxicity”. Further, in the data set on CpxRA, the EC50 is 24.8 µM. Also, the “recovery of E. coli CFT073 in the urine, bladder, or kidneys vs vehicle control” value with UPEC strain CFT073 [2] (100 mg/kg s.c. twice a day for 3 days from 12 h after ~1 × 10^8 CFU transurethral, sacrificed 4 h after last dose) was “no significant; also recorded: No effect”.
